Results reported in ChEMBL document CHEMBL4000244, “Probing A-form DNA: A fluorescent aminosugar probe and dual recognition by anthraquinone-neomycin conjugates” (Bioorg Med Chem, 2017).

What was measured:
[1] = Binding affinity to 5'-CCCGCCGC-3' DNA hairpin assessed as change in fluorescence intensity at 1 uM after 45 mins by fluorescence quenching analysis relative to control
[2] = Binding affinity to 5'-CGCCGCCC-3' DNA hairpin assessed as change in fluorescence intensity at 1 uM after 45 mins by fluorescence quenching analysis relative to control
[3] = Binding affinity to 5'-CGCGGGCG-3' DNA hairpin assessed as change in fluorescence intensity at 1 uM after 45 mins by fluorescence quenching analysis relative to control
[4] = Binding affinity to 5'-CGGCCGCG-3' DNA hairpin assessed as change in fluorescence intensity at 1 uM after 45 mins by fluorescence quenching analysis relative to control
[5] = Binding affinity to 5'-GGGGCGGC-3' DNA hairpin assessed as change in fluorescence intensity at 1 uM after 45 mins by fluorescence quenching analysis relative to control
[6] = Binding affinity to 5'-CGGCCCGG-3' DNA hairpin assessed as change in fluorescence intensity at 1 uM after 45 mins by fluorescence quenching analysis relative to control
[7] = Binding affinity to 5'-CCCGCGGC-3' DNA hairpin assessed as change in fluorescence intensity at 1 uM after 45 mins by fluorescence quenching analysis relative to control
[8] = Binding affinity to 5'-GGCCCGGC-3' DNA hairpin assessed as change in fluorescence intensity at 1 uM after 45 mins by fluorescence quenching analysis relative to control
[9] = Binding affinity to 5'-CCGCGCCG-3' DNA hairpin assessed as change in fluorescence intensity at 1 uM after 45 mins by fluorescence quenching analysis relative to control
[10] = Binding affinity to 5'-CCCCGCGC-3' DNA hairpin assessed as change in fluorescence intensity at 1 uM after 45 mins by fluorescence quenching analysis relative to control
[11] = Binding affinity to 5'-GGGCCCGC-3' DNA hairpin assessed as change in fluorescence intensity at 1 uM after 45 mins by fluorescence quenching analysis relative to control
[12] = Binding affinity to 5'-GCGGGCGC-3' DNA hairpin assessed as change in fluorescence intensity at 1 uM after 45 mins by fluorescence quenching analysis relative to control
[13] = Binding affinity to 5'-CCGGGGGG-3' DNA hairpin assessed as change in fluorescence intensity at 1 uM after 45 mins by fluorescence quenching analysis relative to control
[14] = Binding affinity to 5'-GCCCGGGC-3' DNA hairpin assessed as change in fluorescence intensity at 1 uM after 45 mins by fluorescence quenching analysis relative to control
[15] = Binding affinity to 5'-GCGCCGGC-3' DNA hairpin assessed as change in fluorescence intensity at 1 uM after 45 mins by fluorescence quenching analysis relative to control
[16] = Binding affinity to 5'-CGCGCGGC-3' DNA hairpin assessed as change in fluorescence intensity at 1 uM after 45 mins by fluorescence quenching analysis relative to control
[17] = Binding affinity to 5'-GGGGCGCG-3' DNA hairpin assessed as change in fluorescence intensity at 1 uM after 45 mins by fluorescence quenching analysis relative to control
[18] = Binding affinity to 5'-GCGGGCCC-3' DNA hairpin assessed as change in fluorescence intensity at 1 uM after 45 mins by fluorescence quenching analysis relative to control
[19] = Binding affinity to 5'-CCCGCCCG-3' DNA hairpin assessed as change in fluorescence intensity at 1 uM after 45 mins by fluorescence quenching analysis relative to control
[20] = Binding affinity to 5'-GGCGGCCG-3' DNA hairpin assessed as change in fluorescence intensity at 1 uM after 45 mins by fluorescence quenching analysis relative to control
[21] = Binding affinity to 5'-GCCCCCGG-3' DNA hairpin assessed as change in fluorescence intensity at 1 uM after 45 mins by fluorescence quenching analysis relative to control
[22] = Binding affinity to d(G4C4)2 DNA major groove assessed as change in electrostatic potential at 10 uM at pH 4.65 to 9.78 by UV-Visible spectrophotometric method
[23] = Binding affinity to 5'-CGGCGCGG-3' DNA hairpin assessed as change in fluorescence intensity at 1 uM after 45 mins by fluorescence quenching analysis relative to control
[24] = Binding affinity to 5'-CCGCCGGG-3' DNA hairpin assessed as change in fluorescence intensity at 1 uM after 45 mins by fluorescence quenching analysis relative to control
[25] = Binding affinity to 5'-GGCGGCGG-3' DNA hairpin assessed as change in fluorescence intensity at 1 uM after 45 mins by fluorescence quenching analysis relative to control
[26] = Binding affinity to 5'-GGCCGCGG-3' DNA hairpin assessed as change in fluorescence intensity at 1 uM after 45 mins by fluorescence quenching analysis relative to control
[27] = Binding affinity to 5'-CGCCCGGC-3' DNA hairpin assessed as change in fluorescence intensity at 1 uM after 45 mins by fluorescence quenching analysis relative to control
[28] = Binding affinity to 5'-GCCGGGGG-3' DNA hairpin assessed as change in fluorescence intensity at 1 uM after 45 mins by fluorescence quenching analysis relative to control
[29] = Binding affinity to 5'-CCCCGGCC-3' DNA hairpin assessed as change in fluorescence intensity at 1 uM after 45 mins by fluorescence quenching analysis relative to control
[30] = Binding affinity to 5'-GCCCCCGC-3' DNA hairpin assessed as change in fluorescence intensity at 1 uM after 45 mins by fluorescence quenching analysis relative to control
[31] = Binding affinity to 5'-CCCCCCCC-3' DNA hairpin assessed as change in fluorescence intensity at 1 uM after 45 mins by fluorescence quenching analysis relative to control
[32] = Binding affinity to 5'-CCCGGGCC-3' DNA hairpin assessed as change in fluorescence intensity at 1 uM after 45 mins by fluorescence quenching analysis relative to control
[33] = Binding affinity to 5'-CCCCGCCG-3' DNA hairpin assessed as change in fluorescence intensity at 1 uM after 45 mins by fluorescence quenching analysis relative to control
[34] = Binding affinity to 5'-CCCCGGGG-3' DNA hairpin assessed as change in fluorescence intensity at 1 uM after 45 mins by fluorescence quenching analysis relative to control
[35] = Binding affinity to 5'-GCGCGGGG-3' DNA hairpin assessed as change in fluorescence intensity at 1 uM after 45 mins by fluorescence quenching analysis relative to control
[36] = Binding affinity to 5'-CCGCGGCG-3' DNA hairpin assessed as change in fluorescence intensity at 1 uM after 45 mins by fluorescence quenching analysis relative to control

NCC1O[C@H](O[C@H]2[C@@H](O)[C@H](O[C@@H]3[C@@H](O)[C@H](N)C[C@H](N)[C@H]3O[C@H]3O[C@H](CN)[C@@H](O)[C@H](O)[C@H]3N)O[C@@H]2CSCCNC(=O)CCSCC(=O)Nc2ccc(-c3c4ccc(=O)cc-4oc4cc(O)ccc34)c(C(=O)O)c2)[C@H](N)[C@@H](O)[C@@H]1O (stereo partly specified)
Activity [1]: 48.9%
Activity [2]: 44.6%
Activity [3]: 47.5%
Activity [4]: 48.6%
Activity [5]: 44.6%
Activity [6]: 54.4%
Activity [7]: 45.4%
Activity [8]: 37%
Activity [9]: 53.7%
Activity [10]: 41.4%
Activity [11]: 30.6%
Activity [12]: 53.7%
Activity [13]: 45.1%
Activity [14]: 41.1%
Activity [15]: 55.1%
Activity [16]: 43.8%
Activity [17]: 43.4%
Activity [18]: 47.8%
Activity [19]: 46.5%
Activity [20]: 56.4%
Activity [21]: 16%
Activity [22]: -1.01 kT/e
Activity [23]: 43.2%
Activity [24]: 43.7%
Activity [25]: 46.8%
Activity [26]: 49.8%
Activity [27]: 46.6%
Activity [28]: 42.5%
Activity [29]: 37.6%
Activity [30]: 23.6%
Activity [31]: 15%
Activity [32]: 40.2%
Activity [33]: 41.4%
Activity [34]: 32.7%
Activity [35]: 43.1%
Activity [36]: 50.1%
